Where no end group is shown, it is not given here.
Key:
[1] = system: mice; experiment: Blood glucose concentration kinetics of IGF-2 vs. insulin in a glucose tolerance test; assay type: in vivo, mouse; conditions: insulin 1 unit per kg, IGF-2 800 μg/kg
Text: IGF-2 therefore provides an effect that mimics insulin within the body, and that effect is referred to herein as an “insulinomimetic” effect. […] In this example, administering IGF-2 can provide better results than administering insulin with respect to blood glucose levels, even when only a single dose was used. Without being bound by this theory, it is possible that the IGF-2 combines with a number of binding proteins in the blood and its active free form is then released slowly from the complex.

[2] = system: STZ-treated mouse islets; experiment: Insulin secretion from STZ-treated mouse islets; assay type: cell-based; conditions: islets treated with 2.5 mM STZ; 48 hours after treatment; IGF-2 50 nM and 500 nM, GLP-1 100 nM and 1000 nM
Procedure: Mouse islet cells were treated with 2.5 mM STZ and subsequently treated with either IGF-2 (FA) at 50 nM and 500 nM, or with GLP-1 at 100 nM and 1000 nM.

[3] = system: β-MIN6 cells; experiment: Insulin secretion of β-MIN6 cells following glucose induction; assay type: cell-based, mouse; conditions: 1 week treatment; IGF-2 5 nM, 20 nM, 80 nM
Text: β-MIN6 cells serve as an in vitro model of mouse pancreatic islets. β-MIN6 cells were used as an in vitro model to measure the effects of treatment with IGF-2.

[4] = system: STZ-treated mouse islets; experiment: MTT viability of STZ-treated mouse islets; assay type: cell-based; conditions: increasing concentrations
Text: Yellow dye MTT is converted to a purple dye by mitochondrial reductase in viable cells. Therefore, the amount of purple dye present determined by measuring optical density of cells at 570 nm serves as a measurement of cell viability.

Row | Substance | glucose level after administration ([1]; glucose tolerance test in mice) | time after which the recovery in glucose levels began ([1]; single dose) | insulin secretion [2] | insulin secretion following glucose induction [3] | mouse islet viability (MTT, optical density at 570 nm) [4]
1 | insulin [reference compound] | the glucose level decreased | after two hours |  |  | 
2 | GLP-1 (HAEGTFTSDVSSYLEGQAAKEFIAWLVKGR; ends and bridges not checked; UniProt P01275 98-127, looked up) [a satiety hormone, comparator in vitro, reference compound] |  |  | did not significantly increase insulin secretion | does not increase insulin secretion | did not significantly increase mouse islet viability
